Assay results published in patent US20070275925A1, “ASTHMA DIAGNOSIS AND THERAPY” (REGENTS OF THE UNIVERSITY OF CALIFORNIA, priority 2006, published 2007).

System: primary human airway epithelial cells
Experiment: IL-13 stimulation of airway epithelial cells in vitro, real time RT-PCR
Type: cell-based
Details: IL-13 10 ng/mL, up to 4 days
Description: To confirm that airway epithelial cells are a source of serpinB2 and periostin and that these genes may be induced by cytokines relevant to asthma, we stimulated primary human airway epithelial cells in vitro with IL-13 (0.1 to 10 ng) for up to 4 days (methods in supplementary appendix).
Human primary bronchial airway epithelial cells were purchased (Clonetics—Cambrex Bio Science, Walkersville Md.) and grown as described by Gray et al.^7 Cells were purchased at passage 1 and expanded in T25 flasks until they reached 80% confluency at which time they were passaged onto 6.5 mm Transwell permeable supports at a density of 132,000 cells/filter. The cells were grown submerged in Gray's medium until approximately day 7 to 9 at which point an air-liquid interface was established. Cells became fully differentiated (ciliated and mucous producing) as determined by transepithelial voltage and resistance after 2-3 weeks on the filters. Cells were exposed to the recombinant human IL-13 (R&D Systems, Minneapolis Minn.) for up to four days at concentrations ranging from 0.1 ng/ml to 10 ng/ml. Filters were cut from the support and submerged in RLT lysis buffer (Qiagen Inc, Valencia Calif.) and stored at −80° C. before analysis of gene expression by real time RT-PCR.

Substance: IL-13: recombinant human IL-13 (R&D Systems) used to stimulate airway epithelial cells
- Epithelial gene expression of periostin: large increases
- Epithelial gene expression of serpinB2: large increases
